The text below walks through data of PubChem BioAssay (NCI).

Each structure is given as a SMILES string.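 96-well plates; 48 h exposure; 5 concentrations. Endpoints by linear interpolation between flanking doses. Not reached: highest tested concentration assigned. TGI marks complete inhibition of growth.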

Test systems include SR leukemia; SK-MEL-5 melanoma; NCI/ADR-RES ovarian; RPMI-8226 leukemia; DU-145 prostate; CCRF-CEM leukemia; OVCAR-8 ovarian; ACHN renal; SK-MEL-28 melanoma; RXF 393 renal; COLO 205 colon; UO-31 renal; NCI-H23 lung; MDA-N; SN12C renal; MALME-3M melanoma; IGROV1 ovarian; T-47D breast.
Holding throughout (assay): growth of human tumour cells (NCI), 48 h

Regarding `CC1=CCC2CC1NC(=O)CCOCCC(=O)NC2(C)C` (centres undefined), the TGI in the assay on SR leukemia, in the assay on SK-MEL-5 melanoma, with NCI/ADR-RES ovarian, in the assay on RPMI-8226 leukemia, in the assay with DU-145 prostate and in the assay on CCRF-CEM leukemia was more than 100 µM each time. Moreover, the TGI in the assay with OVCAR-8 ovarian, with ACHN renal, in the assay on SK-MEL-28 melanoma, with RXF 393 renal, in the assay on COLO 205 colon and in the assay with UO-31 renal was more than 100 µM throughout. Moreover, the TGI in the assay on NCI-H23 lung, in the assay on MDA-N and with SN12C renal was more than 100 µM in each case.

For `CCOC(=O)c1cc(C2CCN(Cc3ccccc3)C2=S)c(C(=O)C=[N+]=[N-])[nH]1` (centres undefined), the TGI in the assay with SK-MEL-5 melanoma is 34.5 µM; in the assay on NCI/ADR-RES ovarian, 79.6 µM; in the assay with RPMI-8226 leukemia, more than 100 µM; in the assay on MALME-3M melanoma it was 66.3 µM; with DU-145 prostate it was more than 100 µM; in the assay on CCRF-CEM leukemia it was more than 100 µM. The TGI is more than 100 µM in the assay on OVCAR-8 ovarian; more than 100 µM with ACHN renal; 51.5 µM in the assay with SK-MEL-28 melanoma; 75.5 µM with RXF 393 renal; more than 100 µM in the assay with COLO 205 colon; 57.5 µM with UO-31 renal. The TGI in the assay on NCI-H23 lung is 53.4 µM; in the assay on MDA-N, 49.4 µM; with IGROV1 ovarian it was more than 100 µM.

Regarding `C/C(Cc1ccc2c(c1)OCO2)=N\NC(=O)C(C)Sc1nnc(SC(C)C(=O)N/N=C(\C)Cc2ccc3c(c2)OCO3)s1` (centres undefined), the TGI in the assay with SK-MEL-5 melanoma, in the assay on NCI/ADR-RES ovarian, in the assay with RPMI-8226 leukemia, in the assay on MALME-3M melanoma, with DU-145 prostate and in the assay with CCRF-CEM leukemia was more than 100 µM throughout. Also, the TGI with OVCAR-8 ovarian, in the assay with ACHN renal, in the assay with SK-MEL-28 melanoma, in the assay on RXF 393 renal, in the assay with COLO 205 colon and with UO-31 renal was more than 100 µM throughout. The TGI with NCI-H23 lung, in the assay with MDA-N and with IGROV1 ovarian was more than 100 µM throughout.

For `CC(=O)OCC1OC(n2nc(Cc3ccccc3)c(=S)[nH]c2=S)C(OC(C)=O)C(OC(C)=O)C1OC(C)=O` (centres undefined), the TGI in the assay with SR leukemia is more than 100 µM; in the assay with SK-MEL-5 melanoma it was more than 100 µM; in the assay with NCI/ADR-RES ovarian, more than 100 µM; in the assay with MALME-3M melanoma, 83.9 µM; in the assay on DU-145 prostate, 64.3 µM; with T-47D breast it was 60.2 µM. In addition, the TGI was 58.4 µM with OVCAR-8 ovarian; more than 100 µM in the assay with ACHN renal; more than 100 µM in the assay with SK-MEL-28 melanoma; 44.6 µM in the assay with RXF 393 renal; more than 100 µM in the assay on COLO 205 colon; 51.7 µM in the assay on UO-31 renal. In addition, the TGI was determined as 44.6 µM with NCI-H23 lung, 55.3 µM in the assay on SN12C renal and 45.7 µM in the assay with IGROV1 ovarian.

On to `O=C1c2ccccc2C(=O)c2c(NCCCN3CCOCC3)ccc(NCCCN3CCOCC3)c21`, for which the TGI is more than 100 µM in the assay with SR leukemia; 6.79 µM in the assay with SK-MEL-5 melanoma; 42.8 µM in the assay on RPMI-8226 leukemia; 27.7 µM in the assay on MALME-3M melanoma; 52.6 µM in the assay with DU-145 prostate; more than 100 µM with CCRF-CEM leukemia. Further, the TGI with T-47D breast was found to be 83.9 µM; in the assay on OVCAR-8 ovarian, 14.1 µM; with ACHN renal, 19.5 µM; in the assay with SK-MEL-28 melanoma, 19.8 µM; in the assay on RXF 393 renal it was 27.1 µM; in the assay on UO-31 renal, 17.4 µM. Also, the TGI is 17.6 µM in the assay on NCI-H23 lung, 13.6 µM in the assay on MDA-N, 17.2 µM in the assay on SN12C renal and 29.4 µM in the assay on IGROV1 ovarian.

For the compound `Cn1c(N=P(c2ccccc2)(c2ccccc2)c2ccccc2)c([N+](=O)[O-])c(=O)n(C)c1=O`, the TGI with SK-MEL-5 melanoma was more than 100 µM; in the assay on NCI/ADR-RES ovarian it was more than 100 µM; in the assay on RPMI-8226 leukemia, more than 100 µM; with MALME-3M melanoma it was more than 100 µM; in the assay on CCRF-CEM leukemia, 76.6 µM; in the assay with T-47D breast, more than 100 µM. Also, the TGI in the assay on OVCAR-8 ovarian was 75.3 µM; in the assay with ACHN renal, more than 100 µM; in the assay on RXF 393 renal, more than 100 µM; with COLO 205 colon it was more than 100 µM; with UO-31 renal, more than 100 µM; in the assay on NCI-H23 lung, more than 100 µM. Further, the TGI with MDA-N, with SN12C renal and in the assay on IGROV1 ovarian was more than 100 µM throughout.

Turning to `COC(=O)/C(C#N)=C(\N)c1c(C)c2ccccc2oc1=N`, the TGI with SR leukemia, in the assay with SK-MEL-5 melanoma, in the assay with RPMI-8226 leukemia, in the assay on DU-145 prostate, in the assay on T-47D breast and with SK-MEL-28 melanoma was more than 100 µM throughout. Besides, the TGI in the assay with RXF 393 renal, in the assay with COLO 205 colon, with MDA-N, with SN12C renal and in the assay on IGROV1 ovarian was more than 100 µM in each case.

On to `CC(=O)/C(C=Nc1c(C)n(C)n(C)c1=O)=C(/O)c1ccccc1`, for which the TGI with SR leukemia, in the assay on SK-MEL-5 melanoma, in the assay on RPMI-8226 leukemia, with MALME-3M melanoma, in the assay on DU-145 prostate and with CCRF-CEM leukemia was more than 50 µM each time. Further, the TGI in the assay on T-47D breast, in the assay with ACHN renal, in the assay with SK-MEL-28 melanoma, in the assay with RXF 393 renal, in the assay on COLO 205 colon and with UO-31 renal was more than 50 µM throughout. The TGI in the assay on NCI-H23 lung, with MDA-N, with SN12C renal and in the assay on IGROV1 ovarian was more than 50 µM each time.

Regarding `CCOC(=O)C(CCc1ncnc2c1ncn2Cc1ccccc1)(CCc1ncnc2c1ncn2Cc1ccccc1)C(=O)OCC`, the TGI with SR leukemia, in the assay with SK-MEL-5 melanoma, in the assay with NCI/ADR-RES ovarian, in the assay with RPMI-8226 leukemia, in the assay on MALME-3M melanoma and in the assay with DU-145 prostate was more than 100 µM in each case. The TGI in the assay on OVCAR-8 ovarian is more than 100 µM; in the assay with ACHN renal, more than 100 µM; with SK-MEL-28 melanoma, more than 100 µM; in the assay on RXF 393 renal, more than 100 µM; in the assay with COLO 205 colon it was more than 100 µM; in the assay on UO-31 renal, 10.9 µM. For the same compound, the TGI with NCI-H23 lung, in the assay with MDA-N, with SN12C renal and with IGROV1 ovarian was more than 100 µM each time.
